Data from PMC8911992, “In Vitro and Computational Studies of Perezone and Perezone Angelate as Potential Anti-Glioblastoma Multiforme Agents” (Molecules, 2022).

Biological target: T1, PARP-1 (Homo sapiens, UniProt P09874)
T1 construct: gene PARP1
Assay: PARP-1 colorimetric assay kit (BPS Bioscience […])
Assay type: biochemical

T1 sequence (P09874 2-1014): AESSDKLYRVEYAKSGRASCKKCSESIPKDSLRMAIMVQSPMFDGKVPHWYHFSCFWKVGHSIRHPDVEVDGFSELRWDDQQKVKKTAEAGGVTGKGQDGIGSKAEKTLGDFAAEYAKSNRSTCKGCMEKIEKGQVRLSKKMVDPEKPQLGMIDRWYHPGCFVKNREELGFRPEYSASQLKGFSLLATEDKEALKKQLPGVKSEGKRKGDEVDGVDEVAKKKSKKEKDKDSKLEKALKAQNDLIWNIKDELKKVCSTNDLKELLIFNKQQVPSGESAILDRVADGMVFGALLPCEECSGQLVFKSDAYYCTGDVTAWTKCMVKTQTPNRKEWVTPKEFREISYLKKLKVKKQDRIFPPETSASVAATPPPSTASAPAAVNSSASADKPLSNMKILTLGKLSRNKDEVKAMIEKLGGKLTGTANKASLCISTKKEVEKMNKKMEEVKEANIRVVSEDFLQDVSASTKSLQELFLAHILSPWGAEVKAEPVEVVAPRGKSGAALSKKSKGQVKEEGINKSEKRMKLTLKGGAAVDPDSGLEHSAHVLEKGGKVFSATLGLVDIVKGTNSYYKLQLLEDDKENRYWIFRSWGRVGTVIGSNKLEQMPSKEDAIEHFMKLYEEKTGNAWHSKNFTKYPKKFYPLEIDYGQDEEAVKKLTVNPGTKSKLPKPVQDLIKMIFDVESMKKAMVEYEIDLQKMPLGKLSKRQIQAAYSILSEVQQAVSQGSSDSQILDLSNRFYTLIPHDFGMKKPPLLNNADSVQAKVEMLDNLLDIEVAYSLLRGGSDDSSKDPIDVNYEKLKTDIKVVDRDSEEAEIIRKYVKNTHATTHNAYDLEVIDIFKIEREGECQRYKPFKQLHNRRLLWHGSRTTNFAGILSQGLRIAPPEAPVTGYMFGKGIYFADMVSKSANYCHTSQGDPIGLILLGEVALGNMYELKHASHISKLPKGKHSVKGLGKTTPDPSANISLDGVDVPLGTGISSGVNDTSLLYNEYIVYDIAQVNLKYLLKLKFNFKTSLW

Work on `C/C=C(/C)C(=O)OC1=C(C(C)CCC=C(C)C)C(=O)C=C(C)C1=O` (stereo not shown) [perezone angelate] yielded an IC50 of 5.25 µM.
